Two compounds from ChEMBL document CHEMBL5370591, “A Potent and Narrow-Spectrum Antibacterial against Clostridioides difficile Infection” (J Med Chem, 2023) can be followed below.

Molecules are shown by their SMILES. Converted amounts (≈) assume the structure as drawn. The source made the active and inactive calls. The rule behind the calls is not given here. Some results are limits rather than exact numbers.

Series [1] is described as follows: Selectivity ratio of IC50 for human HepG2 cells to MIC for Clostridium difficile ATCC 43255. The format is toxicity.
In series [2] the test system is HepG2. The series is described as follows: Antiproliferative activity against human HepG2 cells assessed as inhibition of cell growth by XTT assay. The format is functional, cell-based.
The subject of series [3] is THP-1. The series is described as follows: Cytotoxicity against human THP-1 cells assessed as increase in LDH release incubate for 24 hrs by trypan-blue staining based analysis. The class given is functional, cell-based. Particulars: THP-1, 24 h.
Series [4] has as its system Clostridioides difficile. Kind of series: Antibacterial activity against Clostridium difficile ATCC 43255 measured after 48 hrs by two fold serial dilution method. The format is functional.
Series [5] in a line: Selectivity ratio of IC50 for human THP-1 cells to MIC for Clostridium difficile ATCC 43255. The class given is toxicity.
Series [6] relates to Bacillus licheniformis. The series is described as follows: Antibacterial activity against Bacillus licheniformis ATCC 12759 assessed as inhibition of bacterial growth by broth microdilution method. The format is functional.
In series [7] the test system is Enterococcus faecalis. Kind of series: Antibacterial activity against Enterococcus faecalis ATCC 29212 assessed as inhibition of bacterial growth by broth microdilution method. The format is functional.
The test system of series [8] is Clostridioides difficile. Kind of series: Antibacterial activity against Clostridium difficile 23828 assessed as inhibition of bacterial growth by broth microdilution method. The format is functional.
The subject of series [9] is Staphylococcus aureus. The series is described as follows: Antibacterial activity against vancomycin-resistant Staphylococcus aureus clinical isolate 1 assessed as inhibition of bacterial growth by broth microdilution method. The format is functional.
In series [10] the test system is Corynebacterium sp. Kind of series: Antibacterial activity against Corynebacterium sp. HM-784 assessed as inhibition of bacterial growth by broth microdilution method. The format is functional.
Series [11] concerns Enterococcus faecalis. Kind of series: Antibacterial activity against vancomycin susceptible Enterococcus faecalis 201 assessed as inhibition of bacterial growth by broth microdilution method. The class given is functional.
For series [12], the system named is Enterococcus faecium. Kind of series: Antibacterial activity against Enterococcus faecium NCTC 7171 assessed as inhibition of bacterial growth by broth microdilution method. The class given is functional.
Series [13] relates to Pseudomonas aeruginosa. Kind of series: Antibacterial activity against Pseudomonas aeruginosa ATCC27853 assessed as inhibition of bacterial growth by broth microdilution method. The format is functional.
Series [14] relates to Clostridioides difficile. The series is described as follows: Antibacterial activity against Clostridium difficile BAA-1803 assessed as inhibition of bacterial growth by broth microdilution method. The format is functional.
In series [15] the test system is Staphylococcus epidermidis. Kind of series: Antibacterial activity against Staphylococcus epidermidis ATCC 35547 assessed as inhibition of bacterial growth by broth microdilution method. The format is functional.
Series [16] concerns Klebsiella pneumoniae. Kind of series: Antibacterial activity against Klebsiella pneumoniae ATCC700603 assessed as inhibition of bacterial growth by broth microdilution method. The format is functional.
In series [17] the test system is Staphylococcus aureus. Kind of series: Antibacterial activity against vancomycin-resistant Staphylococcus aureus clinical isolate 2 assessed as inhibition of bacterial growth by broth microdilution method. The class given is functional.
In series [18] the test system is Enterococcus faecalis. Kind of series: Antibacterial activity against vancomycin resistant Enterococcus faecalis 99 assessed as inhibition of bacterial growth by broth microdilution method. The class given is functional.
Series [19] deals with Bifidobacterium longum. The series is described as follows: Antibacterial activity against Bifidobacterium longum HM-846 assessed as inhibition of bacterial growth by broth microdilution method. The format is functional.
Series [20] relates to Bacillus cereus. Kind of series: Antibacterial activity against Bacillus cereus ATCC 13061 assessed as inhibition of bacterial growth by broth microdilution method. The class given is functional.
The test system of series [21] is Enterococcus faecium. The series is described as follows: Antibacterial activity against vancomycin resistant Enterococcus faecium 106 assessed as inhibition of bacterial growth by broth microdilution method. The format is functional.
Series [22] concerns Streptococcus pyogenes. The series is described as follows: Antibacterial activity against Streptococcus pyogenes ATCC 49399 assessed as inhibition of bacterial growth by broth microdilution method. The class given is functional.
Series [23] concerns Staphylococcus haemolyticus. The series is described as follows: Antibacterial activity against Staphylococcus haemolyticus ATCC 29970 assessed as inhibition of bacterial growth by broth microdilution method. The format is functional.
For series [24], the system named is Clostridioides difficile. The series is described as follows: Antibacterial activity against Clostridium difficile BAA-1870 assessed as inhibition of bacterial growth by broth microdilution method. The format is functional.
Series [25] has as its system Clostridioides difficile. Kind of series: Antibacterial activity against Clostridium difficile ATCC 43255 assessed as damage in cell wall at 8 time MIC incubated for 24 hrs by scanning electron microscopy based analysis. The class given is functional, organism-based.
The test system of series [26] is Clostridioides difficile. Kind of series: Antibacterial activity against Clostridium difficile 24531 assessed as inhibition of bacterial growth by broth microdilution method. The class given is functional.
The test system of series [27] is Enterococcus faecium. Kind of series: Antibacterial activity against vancomycin susceptible Enterococcus faecium119-39A assessed as inhibition of bacterial growth by broth microdilution method. The class given is functional. The settings on record: 119-39A.
For series [28], the system named is Acinetobacter baumannii. The series is described as follows: Antibacterial activity against Acinetobacter baumannii ATCC17961 assessed as inhibition of bacterial growth by broth microdilution method. The format is functional.
In series [29] the test system is Klebsiella aerogenes. The series is described as follows: Antibacterial activity against Klebsiella aerogenes ATCC35029 assessed as inhibition of bacterial growth by broth microdilution method. The format is functional.
Series [30] relates to Escherichia coli. The series is described as follows: Antibacterial activity against Escherichia coli ATCC25922 assessed as inhibition of bacterial growth by broth microdilution method. The class given is functional.
Series [31] relates to Clostridioides difficile. The series is described as follows: Antibacterial activity against Clostridium difficile 26675 assessed as inhibition of bacterial growth by broth microdilution method. The class given is functional.

For `O=[N+]([O-])c1c[nH]c(-c2nc(-c3ccc(OC4CCC4)cc3)no2)n1`, the selectivity ratio in series [1] is 168; in series [5] it was more than 512. Further, the results for the IC50 in [2] and in series [3] were 41.9 µg/mL (≈ 128 µM) and more than 128 µg/mL, respectively. In series [4], this compound yielded an MIC of 0.25 µg/mL (≈ 0.764 µM).

On to `Cc1ncc([N+](=O)[O-])n1CCO` [METRONIDAZOLE], for which the MIC is more than 256 µg/mL in series [6]; more than 256 µg/mL in series [7]; 0.5 µg/mL (≈ 2.92 µM) in series [8]; more than 256 µg/mL in [9]; more than 32 µg/mL in series [10]; more than 256 µg/mL in [11]. Besides, the MIC in series [12] is more than 128 µg/mL; in series [13] it was more than 128 µg/mL; in series [14], 0.5 µg/mL (≈ 2.92 µM); in series [15], more than 128 µg/mL; in [16] it was more than 128 µg/mL; in series [17] it was more than 256 µg/mL. Moreover, the MIC in [18] was more than 256 µg/mL; in series [19], 0.05 µg/mL (≈ 0.292 µM); in [20], more than 256 µg/mL; in series [21], more than 16 µg/mL; in [22] it was more than 128 µg/mL; in series [23] it was more than 256 µg/mL. Further, the MIC in series [24] is 0.5 µg/mL (≈ 2.92 µM); in series [26], 0.5 µg/mL (≈ 2.92 µM); in [27] it was more than 16 µg/mL; in series [28], more than 128 µg/mL; in series [29] it was more than 128 µg/mL; in series [30], more than 128 µg/mL. For the same compound, the MIC in series [31] is 4 µg/mL (≈ 23.4 µM). The outcome in series [25] was inactive.
